Results as given in patent US8901315B2, “Thienopyrazole derivative having PDE7 inhibitory activity” (Daiichi Sankyo Company, Limited, priority 2004, dated 2014).
Where a name gives a salt, the structure may show the parent alone. Read-outs that look alike come from different tables or passages of the source.

Legend:
[1] = molecular target: PDE 4 (phosphodiesterase IV); assay: PDE 4 inhibiting effect (3H-cAMP hydrolysis, PDE 4 active fraction from Balb/c mouse liver); type: biochemical; settings: PDE 4 fraction from Balb/c mice liver, 0.064 μM cAMP, 2 hours at 25° C.; read-out: PDE4 IC50
Experimental: Methods for Evaluating the PDE 4 Inhibiting Effect
The PDE 4 (phosphodiesterase IV) inhibiting effect of the compounds of the present invention was performed by the following method, which was modified assay method described in Biochemical. […] That is, the livers obtained from three Balb/c mice (male, 12 weeks: obtainable from CLEA Japan, Inc.) were suspended with 30 mL of buffer solution B [20 mM of bis-tris, 5 mM of 2-mercaptoethanol, 2 mM of benzamidine, 2 mM of EDTA, 0.1 mM of 4-(2-aminoethyl)benzenesulfonyl hydrochloride, 50 mM of sodium acetate; pH 6.5], then homogenized by Polytron® homogenizer. The homogenate were centrifuged under 25,000×G for 10 minutes at 4° C. The supernatant was separated and thus obtained supernatant was further centrifuged under 100,000×G for 60 minutes at 4° C., and then filtrated with 0.2 μm filter to obtain the soluble fraction. • (2) The obtained soluble fraction was filled in equilibrium DEAE sepharose column (1×10 cm) with buffer solution B, and phosphodiesterase fractions were eluted by 120 mL of buffer solution B with linear gradient from 0.05 to 1M sodium acetate concentration. 5 mL each of 24 eluents were collected, and each eluents were examined for cyclic AMP metabolic activities of phosphodiesterase. […] After the reaction, suspension of Sephadex®-QAE in 10 mM of HEPES-Na (pH 7.0) was added to the reaction mixture, and the mixture was left at rest for 5 minutes.

[2] = molecular target: PDE 7 (phosphodiesterase VII) (Homo sapiens (Human), UniProt Q13946); assay: PDE 7 inhibiting effect (3H-cAMP hydrolysis, PDE 7 active fraction from MOLT-4 cells); type: biochemical; settings: PDE 7 fraction from MOLT-4 cells, 0.064 μM cAMP, 10 μM rolipram, 2 hours at 25° C., read-out: PDE7 IC50
Sequence of PDE 7 (phosphodiesterase VII) (Q13946 whole entry): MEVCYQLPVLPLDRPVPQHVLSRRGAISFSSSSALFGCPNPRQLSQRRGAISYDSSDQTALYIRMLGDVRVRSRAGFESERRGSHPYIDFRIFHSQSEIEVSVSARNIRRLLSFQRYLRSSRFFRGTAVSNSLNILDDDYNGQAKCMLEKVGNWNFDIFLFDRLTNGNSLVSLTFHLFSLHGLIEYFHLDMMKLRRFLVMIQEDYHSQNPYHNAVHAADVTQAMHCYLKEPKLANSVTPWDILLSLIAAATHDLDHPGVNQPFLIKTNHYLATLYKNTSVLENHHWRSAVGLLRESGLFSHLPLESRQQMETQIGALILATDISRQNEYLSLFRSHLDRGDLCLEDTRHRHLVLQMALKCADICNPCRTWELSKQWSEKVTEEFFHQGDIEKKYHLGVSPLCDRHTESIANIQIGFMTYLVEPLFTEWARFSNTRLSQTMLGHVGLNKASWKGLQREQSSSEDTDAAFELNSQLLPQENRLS
Experimental: Methods for Evaluating the PDE 7 Inhibiting Effect
The PDE 7 (phosphodiesterase VII) inhibiting effect of the compounds of the present invention was performed by the following method, which was modified assay method described in Biochemical. Pharmacol. 48(6), 1219-1223 (1994). • (1) The active fraction of PDE 7 (phosphodiesterase VII) was obtained. That is, MOLT-4 (obtainable from ATCC as ATCC No. CRL-1582), which was cell line of human acute lymphoblastic lymphoma T cells, was incubated in RPMI1640 culture medium containing 10% fetal bovine serum to obtain 5×10^8 MOLT-4 cells. The cells were collected by centrifugation and suspended with 10 mL of buffer solution A [25 mM of tris-HCl, 5 mM of 2-mercaptoethanol, 2 mM of benzamidine, 2 mM of EDTA, 0.1 mM of 4-(2-aminoethyl)benzenesulfonyl hydrochloride; pH 7.5], then homogenized by Polytron® homogenizer. The homogenate were centrifuged under 25,000×G for 10 minutes at 4° C. The supernatant was separated and thus obtained supernatant was further centrifuged under 100,000×G for 60 minutes at 4° C., and then filtrated with 0.2 μm filter to obtain the soluble fraction. • (2) The obtained soluble fraction was filled in equilibrium HiTrap Q column (5 mL×2) with buffer solution A, and phosphodiesterase fractions were eluted by 300 mL of buffer solution A with linear gradient from 0 to 0.8 M NaCl concentration. 5 mL each of 60 eluents were collected, and each eluents were examined for cyclic AMP metabolic activities of phosphodiesterase. […] After the reaction, suspension of Sephadex®-QAE in 10 mM of HEPES-Na (pH 7.0) was added to the reaction mixture, and the mixture was left at rest for 5 minutes.

Structure (SMILES) | IC50 [1] | IC50 [2] | also measured
Cc1nn(C2CCCCC2)c2sc(C(=O)NCCN3C(=O)CNC3=O)cc12 [Example 305, 1-Cyclohexyl-N-[2-(2,5-dioxo-1-imidazolidinyl)ethyl]-3-methyl-1H-thieno[2,3-c]pyrazole-5-carboxamide] | 6800 nM | 66 nM | –
Cc1nn(C2CCCCC2)c2sc(C(=O)Nc3ccc(N4CCC(O)CC4)nc3)cc12 [Example 370, 1-Cyclohexyl-N-[6-(4-hydroxy-1-piperidinyl)-3-pyridinyl]-3-methyl-1H-thieno[2,3-c]pyrazole-5-carboxamide] | 4100 nM | 8.7 nM | –
CCC(=O)N1CCc2cc(NC(=O)c3cc4c(C)nn(C5CCCCC5)c4s3)ccc21 [Example 21, 1-Cyclohexyl-3-methyl-N-(1-propionyl-2,3-dihydro-1H-indol-5-yl)-1H-thieno-[2,3-c]pyrazole-5-carboxamide] | 2500 nM | 84 nM | –
CNC1CCN([C@H]2CC[C@H](NC(=O)c3cc4c(C)nn(C5CCCCC5)c4s3)CC2)CC1 [Example 179, 1-Cyclohexyl-3-methyl-N-{trans-4-[4-(methylamino)-1-piperidinyl]-cyclohexyl}-1H-thieno[2,3-c]pyrazole-5-carboxamide] | 750 nM | 3.1 nM | –
Cc1nn(C2CCCCC2)c2sc(C(=O)Nc3ccc(CCN(C)C)cc3)cc12 [Example 200, 1-Cyclohexyl-N-{4-[(dimethylamino)ethyl]phenyl}-3-methyl-1H-thieno[2,3-c]pyrazole-5-carboxamide] | 1900 nM | 16 nM | –
Cc1nn(C2CCCCC2)c2sc(C(=O)Nc3ccc(C4CCNCC4)cc3)cc12 [Example 141, 1-Cyclohexyl-3-methyl-N-[4-(4-piperidinyl)phenyl]-1H-thieno[2,3-c]pyrazole-5-carboxamide HCl salt] | 1600 nM | 22 nM | –
Cc1nn(C2CCCCC2)c2sc(C(=O)N[C@H]3CC[C@H](C(=O)N(C)C)C3)cc12 [Example 230, 1-Cyclohexyl-N-{(1S,3S)-3-[(dimethylamino)carbonyl]cyclopentyl}-3-methyl-1H-thieno[2,3-c]pyrazole-5-carboxamide HCl salt] | 7000 nM | 23 nM | –
COCCN(C)[C@H]1CC[C@H](NC(=O)c2cc3c(C)nn(C4CCCCC4)c3s2)CC1 [Example 172, 1-cyclohexyl-N-{trans-4-[(2-methoxyethyl)(methyl)amino]-cyclohexyl}-3-methyl-1H-thieno[2,3-c]pyrazole-5-carboxamide] | 9400 nM | 48 nM | –
Cc1nn(C2CCCCC2)c2sc(C(=O)Nc3ccc(N4CCC(O)CC4)cc3)cc12 [Example 114] | – | 21 nM | –
Cc1nn(C2CCOCC2)c2sc(C(=O)N[C@H]3CC[C@H](N4CCNC(=O)C4)CC3)cc12 [Example 417, 3-Methyl-N-[trans-4-(3-oxo-piperazinyl)cyclohexyl]-1-tetrahydro-2H-pyran-4-yl-1H-thieno[2,3-c]pyrazole-5-carboxamide] | 7000 nM | 63 nM | –
Cc1nn(C2CCCCC2)c2sc(C(=O)N[C@H]3CC[C@H](C(=O)N4CCOCC4)CC3)cc12 [Example 236, 1-Cyclohexyl-3-methyl-N-[4-(4-morpholinylcarbonyl)cyclohexyl]-1H-thieno[2,3-c]pyrazole-5-carboxamide] | 2700 nM | 20 nM | –
Cc1nn(C2CCCCC2)c2sc(C(=O)Nc3ccc(N4CCC(O)CC4)c(F)c3)cc12 [Example 366, 1-Cyclohexyl-N-[3-fluoro-4-(4-hydroxy-1-piperidinyl)phenyl]-3-methyl-1H-thieno[2,3-c]pyrazole-5-carboxamide p-toluenesulfonate] | – | – | IC50 ([2]; p-toluenesulfonate): 49 nM
Cc1nn(C2CCCCC2)c2sc(C(=O)Nc3ccc(N4CCN(C)CC4)c(F)c3)cc12 [Example 155, 1-Cyclohexyl-N-[3-fluoro-4-(4-methyl-1-piperazinyl)phenyl]-3-methyl-1H-thieno[2,3-c]pyrazole-5-carboxamide methanesulfonic acid salt] | 1500 nM | 10 nM | –
Cc1nn(C2CCOCC2)c2sc(C(=O)N[C@H]3CC[C@H](N4CCN(C)CC4=O)CC3)cc12 [Example 415, 3-Methyl-N-[trans-4-(4-methyl-2-oxo-piperazinyl)cyclohexyl]-1-tetrahydro-2H-pyran-4-yl-1H-thieno[2,3-c]pyrazole-5-carboxamide] | 5100 nM | 93 nM | –
Cc1nn(C2CCCCC2)c2sc(C(=O)N[C@@H]3CCN(C(=O)N(C)C)C3)cc12 [Example 323, 1-Cyclohexyl-N-{(3R)-1-[(dimethylamino)carbonyl]pyrrolidinyl}-3-methyl-1H-thieno[2,3-c]pyrazole-5-carboxamide HCl salt] | – | 71 nM | –
Cc1nn(C2CCCCC2)c2sc(C(=O)NC3CCN(S(=O)(=O)N(C)C)CC3)cc12 [Example 240, 1-Cyclohexyl-N-{1-[(dimethylamino)sulfonyl]-4-piperidinyl}-3-methyl-1H-thieno[2,3-c]pyrazole-5-carboxamide] | – | 41 nM | –
Cc1nn(C2CCCCC2)c2sc(C(=O)Nc3ccc(CN4CCOCC4)nc3)cc12 [Example 412, 1-Cyclohexyl-3-methyl-N-[6-(4-morpholinylmethyl)-3-pyridinyl]-1H-thieno[2,3-c]pyrazole-5-carboxamide methanesulfonate] | – | 43 nM | –
Cc1nn(C2CCCCC2)c2sc(C(=O)Nc3ccc(N4CCC(O)CC4)c(F)c3)cc12 [Example 159, 1-Cyclohexyl-N-[3-fluoro-4-(4-hydroxy-1-piperidinyl)phenyl]-3-methyl-1H-thieno[2,3-c]pyrazole-5-carboxamide] | – | 35 nM | –
Cc1nn(C2CCCCC2)c2sc(C(=O)N[C@H]3CCN(C(=O)N(C)C)C3)cc12 [Example 246, 1-Cyclohexyl-N-{(3S)-1-[(dimethylamino)carbonyl]pyrrolidinyl}-3-methyl-1H-thieno[2,3-c]pyrazole-5-carboxamide HCl salt] | – | 51 nM | –
CNC(=O)[C@H]1CC[C@H](NC(=O)c2cc3c(C)nn(C4CCCCC4)c3s2)CC1 [Example 237, 1-Cyclohexyl-3-methyl-N-{4-[(methylamino)carbonyl]cyclohexyl}-1H-thieno[2,3-c]pyrazole-5-carboxamide] | – | 7.8 nM | –
Cc1nn(C2CCCCC2)c2sc(C(=O)Nc3ccc(S(=O)(=O)N4CCN(CCO)CC4)cc3)cc12 [Example 79, 1-Cyclohexyl-N-(4-{[4-(2-hydroethyl)-1-piperazinyl]sulfonyl}-phenyl)-3-methyl-1H-thieno[2,3-c]pyrazole-5-carboxamide] | – | 60 nM | –
Cc1nn(C2CCCCC2)c2sc(C(=O)Nc3ccc(N4CCC(O)CC4)cc3)cc12 [Example 368, 1-Cyclohexyl-N-[4-(4-hydroxy-1-piperidinyl)phenyl]-3-methyl-1H-thieno[2,3-c]pyrazole-5-carboxamide p-toluenesulfonate] | – | – | IC50 ([2]; p-toluenesulfonate): 26 nM
Cc1nn(C2CCCCC2)c2sc(C(=O)Nc3ccc(N4CCC(O)CC4)c(F)c3)cc12 [Example 365, 1-cyclohexyl-N-[3-fluoro-4-(4-hydroxy-1-piperidinyl)phenyl]-3-methyl-1H-thieno[2,3-c]pyrazole-5-carboxamide dimethanesulfonate] | – | – | IC50 ([2]; dimethanesulfonate): 41 nM
Cc1nn(C2CCCCC2)c2sc(C(=O)Nc3ccc(N4CCC(O)CC4)cc3)cc12 [Example 367, 1-Cyclohexyl-N-[4-(4-hydroxy-1-piperidinyl)phenyl]-3-methyl-1H-thieno[2,3-c]pyrazole-5-carboxamide methanesulfonate] | – | – | IC50 ([2]; methanesulfonate): 20 nM
